Data: paper PMC7687180 (Chembiochem, 2020)
Read-outs that look alike come from different tables or passages of the source.

How the values were obtained:
SdeC [1] = molecular target: T1, SdeC (Legionella pneumophila, UniProt Q5ZTK8); assay: biochemical
T1 construct: gene lpg2153

SdeC [2] = molecular target: T1, SdeC; assay: biochemical; remark: listed apart in the source

Work on `NC(=O)c1ccc[n+]([C@@H]2O[C@H](COP(=O)([O-])OP(=O)(O)OC[C@H]3O[C@@H](n4cnc5c(N)ncnc54)[C@H](O)[C@@H]3O)[C@@H](O)[C@H]2O)c1` [NAD^+] yielded an IC50 (SdeC [1]) of 27.7 ± 1.9 µM.
In the case of `NC(=O)c1ccc[n+]([C@@H]2S[C@H](COP(=O)(O)OP(=O)([O-])OC[C@H]3O[C@@H](n4cnc5c(N)ncnc54)[C@H](O)[C@@H]3O)[C@@H](O)[C@H]2O)c1` [compound 2, S-NAD^+], the IC50 (SdeC [2]) is reported as 27.9 µM.
`NC(=O)c1cccc([C@@H]2O[C@H](COP(=O)(O)OP(=O)(O)OC[C@H]3O[C@@H](n4cnc5c(N)ncnc54)[C@H](O)[C@@H]3O)[C@@H](O)[C@H]2O)c1` [compound 3, BAD] was tested, and the IC50 (SdeC [2]) was 38.9 µM.
